Series [1] relates to H2O2-induced neuroblastoma SH-SY5Y cells. Description: Neuroprotection assay against H2O2-induced oxidative stress (WST-8). It counts as cell-based, Human. As to conditions: Homo sapiens, SH-SY5Y; 30 µg/mL; 12 h pre-treatment, 1 h H2O2 100 µM; read-out: % cell viability, H2O2-induced SH-SY5Y. How it is done:
(§1) Human neuroblastoma SH-SY5Y cells (ATCC CRL-2266, Manassas, VA, USA) were maintained in Dulbecco’s modified Eagle’s medium (DMEM, Gibco) supplemented with 10% fetal bovine serum (FBS), 1% kanamycin, and 1% penicillin (Thermo Fisher Scientific, Waltham, MA, USA) at 37 °C with 5% CO2, and a 95% humidified atmosphere in the incubator. The experiments were executed at 80–90% cell confluency.
The neuroprotective effect of extracts and phytocompounds on H2O2-induced oxidative stress in SH-SY5Y by a previously described method. The cells (1 × 10^4 cells/well) were seeded in a 96-well sterile plate. After stabilization, the cells were pre-treated with the extracts and phytocompounds for 24 h. The extracts and phytocompounds were removed and treated with H2O2 (100 μM) for 6 h. A solvent control, H2O2 alone, and extract alone treatments were also included. After incubation, the % cell viability was measured using WST-8 reagent in triplicate experiments.

In series [2] the test system is SH-SY5Y neuroblastoma cell line. Description: Cell viability / cytotoxicity assay (WST-8). It counts as cell-based, Human. How it is done: as §1
The cells were seeded (1 × 10^4 cells/well) in 96-well sterile plates and pre-treated with various extract concentrations (1, 10, 30 µg/mL) for 24 h. The extracts and phytocompounds were removed and incubated for 2 h with 10% WST-8 reagent (Roche, Grenzach-Wyhlen, Germany) as described previously. The absorbance was determined at 450 nm in a multi-plate reader (Synergy-H1 BioTek, Agilent, USA). The percent cytotoxicity was calculated as:Cytotoxicity % = (Ac − At)/(Ac) × 100 where Ac = absorbance of the control cells, At = absorbance of the treated cells.
The plot of percent cytotoxicity versus sample concentration was used to calculate the extract concentration that killed 50% of the cells (IC50).
In general terms: Formazan colour is commonly taken as a measure of viable cells.

For the compound `C=C(C)[C@H]1CC=C(C)C(=O)C1` [carvone, D-carvone], in series [1], the viability – broadly, a read-out of living cells in per cent, often relative to untreated cells – at 30 µg/mL was 70.5 ± 1.67%. Moreover, the “Cytotoxicity (cell viability) in SH-SY5Y” value in series [2] is “No significant difference”.

The values are drawn from paper PMC11241255 (International Journal of Molecular Sciences, 2024).
